Values of other authors as cited in publication PMC3215888 (Cancer Chemotherapy and Pharmacology, 2011).

Tested on: Aurora kinase A mutation (T217D)
Details: cited from earlier work

In the case of `O=C(O)c1ccc(Nc2ncc3c(n2)-c2ccc(Cl)cc2C(c2c(F)cccc2F)=NC3)cc1` [MLN8054, reference compound], the “inhibition of Aurora kinase A T217D mutant” value is given as “impervious”.
